{"source": "patent US9624169B2", "about": "“Aryl- and heteroaryl-pyrrolidine-2-carboxamide compounds” (SciFluor Life Sciences, Inc., priority 2015, dated 2017)", "tested_on": "formalin induced pain", "assay": "Formalin induced pain model in rats (flinching, lifting, licking, biting and trembling of injected paw)", "details": "for Effect on the flinching response (in words): at tested dose levels; for Effect on duration of paw lifting post-formalin injection (in words): all dose levels; for Effect on all testing behaviors (lifting, licking, biting and trembling) post-formalin injection (in words): all tested dose levels", "key": {"[1]": {"details": "Phase 1, group 2, 1 mg/ml (Table 2: 1 mg/kg I.P.)"}, "[2]": {"details": "Phase 2, group 2, 1 mg/ml (Table 2: 1 mg/kg I.P.)"}, "[3]": {"details": "phase 1, control compounds, Compound 1A at 3 mg/kg"}, "[4]": {"details": "Phase 1, group 3, 100 mg/ml (Table 2: 100 mg/kg P.O.)"}, "[5]": {"details": "Phase 2, group 3, 100 mg/ml (Table 2: 100 mg/kg P.O.)"}, "[6]": {"details": "Phase 1, group 4, 3 mg/ml (Table 2: 3 mg/kg P.O.)"}, "[7]": {"details": "Phase 1, group 5, 10 mg/ml (Table 2: 10 mg/kg P.O.)"}, "[8]": {"details": "Phase 1, group 6, 30 mg/ml (Table 2: 30 mg/kg P.O.)"}, "[9]": {"details": "Phase 2, group 4, 3 mg/ml (Table 2: 3 mg/kg P.O.)"}, "[10]": {"details": "Phase 2, group 5, 10 mg/ml (Table 2: 10 mg/kg P.O.)"}, "[11]": {"details": "Phase 2, group 6, 30 mg/ml (Table 2: 30 mg/kg P.O.)"}}}
{"smiles": "CN1CC[C@]23c4c5ccc(O)c4O[C@H]2[C@@H](O)C=C[C@H]3[C@H]1C5", "note": "[morphine, reference compound]", "values": [{"measurement": "Group Mean of Average Duration of Licking, Biting and Trembling", "setting": "[1]", "result": "20.5 ± 13.1", "unit": "No. per 5 min"}, {"measurement": "Group Mean of Average Duration of Lifting", "setting": "[1]", "result": "37.8 ± 27.7", "unit": "No. per 5 min"}, {"measurement": "Group Mean of Average Flinching Response", "setting": "[1]", "result": "10.8 ± 7.7", "unit": "No. per 5 min"}, {"measurement": "Group Mean of Total Testing Behavior", "setting": "[1]", "result": "58.3 ± 37.7", "unit": "No. per 5 min"}, {"measurement": "Group Mean of Average Duration of Licking, Biting and Trembling", "setting": "[2]", "result": "12.1 ± 7.2", "unit": "No. per 5 min"}, {"measurement": "Group Mean of Average Duration of Lifting", "setting": "[2]", "result": "3.2 ± 4.4", "unit": "No. per 5 min"}, {"measurement": "Group Mean of Average Flinching Response", "setting": "[2]", "result": "12.3 ± 6.9", "unit": "No. per 5 min"}, {"measurement": "Group Mean of Total Testing Behavior", "setting": "[2]", "result": "15.3 ± 9.0", "unit": "No. per 5 min"}, {"measurement": "Effect on the flinching response (in words)", "result": "no effect"}, {"measurement": "Overall effect of control compounds on formalin induced pain model (in words)", "setting": "control compounds", "result": "consistent effect of inhibiting nociceptive pain"}, {"measurement": "Effect on duration of paw lifting post-formalin injection (in words)", "setting": "phase 1", "result": "no effects"}, {"measurement": "Effect on all testing behaviors (lifting, licking, biting and trembling) post-formalin injection (in words)", "setting": "phase 1", "result": "no any effects"}, {"measurement": "Effect on duration of licking, biting and trembling post-formalin injection (in words)", "setting": "[3]", "result": "neither the control compounds (morphine and gabapentin) nor Compound 1A (at 3 mg/kg) had any effects"}, {"measurement": "Effect on duration of licking, biting and trembling post-formalin injection (in words)", "setting": "phase 2, 1 mg/kg", "result": "significantly decreased"}, {"measurement": "Effect on duration of paw lifting post-formalin injection (in words)", "setting": "phase 2", "result": "significant effect on inhibiting"}, {"measurement": "Effect on all testing behaviors (lifting, licking, biting and trembling) post-formalin injection (in words)", "setting": "phase 2", "result": "significantly reduced"}]}
{"smiles": "NCC1(CC(=O)O)CCCCC1", "note": "[Gabapentin, reference compound]", "values": [{"measurement": "Group Mean of Average Duration of Licking, Biting and Trembling", "setting": "[4]", "result": "26.9 ± 14.7", "unit": "No. per 5 min"}, {"measurement": "Group Mean of Average Duration of Lifting", "setting": "[4]", "result": "39.8 ± 41.5", "unit": "No. per 5 min"}, {"measurement": "Group Mean of Average Flinching Response", "setting": "[4]", "result": "11.5 ± 5.7", "unit": "No. per 5 min"}, {"measurement": "Group Mean of Total Testing Behavior", "setting": "[4]", "result": "66.6 ± 34.8", "unit": "No. per 5 min"}, {"measurement": "Group Mean of Average Duration of Licking, Biting and Trembling", "setting": "[5]", "result": "17.1 ± 9.1", "unit": "No. per 5 min"}, {"measurement": "Group Mean of Average Duration of Lifting", "setting": "[5]", "result": "20.7 ± 23.2", "unit": "No. per 5 min"}, {"measurement": "Group Mean of Average Flinching Response", "setting": "[5]", "result": "16.0 ± 13.3", "unit": "No. per 5 min"}, {"measurement": "Group Mean of Total Testing Behavior", "setting": "[5]", "result": "37.8 ± 23.7", "unit": "No. per 5 min"}, {"measurement": "Effect on the flinching response (in words)", "result": "no effect"}, {"measurement": "Overall effect of control compounds on formalin induced pain model (in words)", "setting": "control compounds", "result": "consistent effect of inhibiting nociceptive pain"}, {"measurement": "Effect on duration of paw lifting post-formalin injection (in words)", "setting": "phase 1", "result": "no effects"}, {"measurement": "Effect on all testing behaviors (lifting, licking, biting and trembling) post-formalin injection (in words)", "setting": "phase 1", "result": "no any effects"}, {"measurement": "Effect on duration of licking, biting and trembling post-formalin injection (in words)", "setting": "[3]", "result": "neither the control compounds (morphine and gabapentin) nor Compound 1A (at 3 mg/kg) had any effects"}, {"measurement": "Effect on duration of licking, biting and trembling post-formalin injection (in words)", "setting": "phase 2, 100 mg/kg", "result": "significantly decreased"}, {"measurement": "Effect on duration of paw lifting post-formalin injection (in words)", "setting": "phase 2", "result": "significant effect on inhibiting"}, {"measurement": "Effect on all testing behaviors (lifting, licking, biting and trembling) post-formalin injection (in words)", "setting": "phase 2", "result": "significantly reduced"}]}
{"smiles": "NC(=O)[C@@H]1CC[C@H](c2ccc(OC(c3ccccc3F)C(F)(F)F)cc2)N1", "note": "(stereo partly drawn) [Compound 1A, (2S,5R)-5-(4-(2,2,2-trifluoro-1-(2-fluorophenyl)ethoxy)phenyl)pyrrolidine-2-carboxamide]", "values": [{"measurement": "Group Mean of Average Duration of Licking, Biting and Trembling", "setting": "[6]", "result": "34.2 ± 26.8", "unit": "No. per 5 min"}, {"measurement": "Group Mean of Average Duration of Lifting", "setting": "[6]", "result": "37.1 ± 43.8", "unit": "No. per 5 min"}, {"measurement": "Group Mean of Average Flinching Response", "setting": "[6]", "result": "15.2 ± 11.3", "unit": "No. per 5 min"}, {"measurement": "Group Mean of Total Testing Behavior", "setting": "[6]", "result": "71.3 ± 56.4", "unit": "No. per 5 min"}, {"measurement": "Group Mean of Average Duration of Licking, Biting and Trembling", "setting": "[7]", "result": "21.9 ± 25.1", "unit": "No. per 5 min"}, {"measurement": "Group Mean of Average Duration of Lifting", "setting": "[7]", "result": "17.3 ± 22.8", "unit": "No. per 5 min"}, {"measurement": "Group Mean of Average Flinching Response", "setting": "[7]", "result": "10.5 ± 3.7", "unit": "No. per 5 min"}, {"measurement": "Group Mean of Total Testing Behavior", "setting": "[7]", "result": "39.2 ± 27.5", "unit": "No. per 5 min"}, {"measurement": "Group Mean of Average Duration of Licking, Biting and Trembling", "setting": "[8]", "result": "17.4 ± 13.0", "unit": "No. per 5 min"}, {"measurement": "Group Mean of Average Duration of Lifting", "setting": "[8]", "result": "21.3 ± 25.2", "unit": "No. per 5 min"}, {"measurement": "Group Mean of Average Flinching Response", "setting": "[8]", "result": "22.0 ± 7.7", "unit": "No. per 5 min"}, {"measurement": "Group Mean of Total Testing Behavior", "setting": "[8]", "result": "38.7 ± 31.8", "unit": "No. per 5 min"}, {"measurement": "Group Mean of Average Duration of Licking, Biting and Trembling", "setting": "[9]", "result": "32.6 ± 27.6", "unit": "No. per 5 min"}, {"measurement": "Group Mean of Average Duration of Lifting", "setting": "[9]", "result": "8.2 ± 10.4", "unit": "No. per 5 min"}, {"measurement": "Group Mean of Average Flinching Response", "setting": "[9]", "result": "16.0 ± 10.2", "unit": "No. per 5 min"}, {"measurement": "Group Mean of Total Testing Behavior", "setting": "[9]", "result": "40.8 ± 34.3", "unit": "No. per 5 min"}, {"measurement": "Group Mean of Average Duration of Licking, Biting and Trembling", "setting": "[10]", "result": "20.7 ± 10.5", "unit": "No. per 5 min"}, {"measurement": "Group Mean of Average Duration of Lifting", "setting": "[10]", "result": "5.1 ± 6.2", "unit": "No. per 5 min"}, {"measurement": "Group Mean of Average Flinching Response", "setting": "[10]", "result": "16.6 ± 7.3", "unit": "No. per 5 min"}, {"measurement": "Group Mean of Total Testing Behavior", "setting": "[10]", "result": "25.8 ± 15.1", "unit": "No. per 5 min"}, {"measurement": "Group Mean of Average Duration of Licking, Biting and Trembling", "setting": "[11]", "result": "22.9 ± 14.5", "unit": "No. per 5 min"}, {"measurement": "Group Mean of Average Duration of Lifting", "setting": "[11]", "result": "6.1 ± 6.7", "unit": "No. per 5 min"}, {"measurement": "Group Mean of Average Flinching Response", "setting": "[11]", "result": "22.3 ± 12.5", "unit": "No. per 5 min"}, {"measurement": "Group Mean of Total Testing Behavior", "setting": "[11]", "result": "29.0 ± 16.4", "unit": "No. per 5 min"}, {"measurement": "Effect on the flinching response (in words)", "result": "no effect"}, {"measurement": "Effect on duration of paw lifting post-formalin injection (in words)", "setting": "phase 1", "result": "no effects"}, {"measurement": "Effect on all testing behaviors (lifting, licking, biting and trembling) post-formalin injection (in words)", "setting": "phase 1", "result": "no any effects"}, {"measurement": "Effect on duration of licking, biting and trembling post-formalin injection (in words)", "setting": "[3]", "result": "neither the control compounds (morphine and gabapentin) nor Compound 1A (at 3 mg/kg) had any effects"}, {"measurement": "Effect on duration of paw lifting post-formalin injection (in words)", "setting": "phase 2", "result": "significant effect on inhibiting"}, {"measurement": "Effect on all testing behaviors (lifting, licking, biting and trembling) post-formalin injection (in words)", "setting": "phase 2", "result": "significantly reduced"}, {"measurement": "Overall effect post formalin-induced pains (in words)", "setting": "phase 2 observation period, especially at 10 mg/kg and 30 mg/kg", "result": "anti-nociceptive effects"}, {"measurement": "Activity in the formalin pain model (in words)", "setting": "rat, in vivo", "result": "active"}]}
